From PMC4823711, “Allosteric Partial Inhibition of Monomeric Proteases. Sulfated Coumarins Induce Regulation, not just Inhibition, of Thrombin” (Scientific Reports, 2016)

Legend:
Assay type in all cases: biochemical
factor Xa [1] = target: T1, factor Xa (Homo sapiens, UniProt P00742); test: Chromogenic substrate hydrolysis assay, factor Xa inhibition (Spectrozyme FXa)
T1 construct: antithrombin, factor Xa and factor XIa were from Haematologic Technologies; purchased Haematologic Technologies (Essex Junction, VT); host or cells: human plasma
Method: For factor XIa inhibition studies, 85 μL of buffer (50 mM Tris-HCl, 150 mM NaCl, 0.1% PEG 8000, 0.02% Tween 80, pH 7.4) was added to each well, followed by 7 μL of 15.3 nM enzyme and 3 μL of sulfated coumarin (3.75–500 μM final concentration) and incubated for 10 min at 37 °C. After the incubation period, 5 μL of 6.9 mM S-2366 was added to each well simultaneously and allowed to react for 300 sec at 37 °C. For factor Xa assay, 180 μL of buffer (20 mM Tris-HCl, 100 mM NaCl, 2.5 mM CaCl2, 0.1% PEG 8000, 0.02% Tween 80, pH 7.4) was added to each well followed by 5 μL of 43.5 nM enzyme, 10 μL of sulfated coumarin (0.002–250 μM final concentration). After a 10 min incubation, 5 μL of 5 mM Spectrozyme FXa was added to each well simultaneously and allowed to react for 300 seconds at 37 °C. The slopes generated from each experiment were used to calculate the fractional residual activity (Y) at each concentration of the inhibitor, and analyzed using logistic equation 1, in which YM is the maximum efficacy, Y0 is minimum efficacy and HS is the Hill slope.

[2] = test system: recombinant human thrombins; test: Inhibition of recombinant thrombins (wild type and exosite 2 mutants, summary statements)
Method: (§1) Chromogenic substrate hydrolysis assay was used to measure potency of inhibition, as previously reported. The assay was performed using Flexstation III (Molecular Devices, Sunnyvale, CA) by monitoring substrate hydrolysis at 405 nm. For thrombin and its mutants, 180 μL of buffer (20 mM Tris-HCl, 100 mM NaCl, 2.5 mM CaCl2, 0.1% (polyethylene glycol) PEG 8000, pH 7.4) was added to each well followed by 5 μL of 240 nM thrombin and 10 μL of sulfated coumarin in DMSO to give 0.002 to 250 μM final concentration (or 10 μL of DMSO alone). After incubation for 10 min at 25 °C, 5 μL of 2 mM Spectrozyme TH was added to each well simultaneously and allowed to react for 60 seconds at 25 °C while simultaneously monitoring the reaction to obtain the rate of increase in A405. Identical experimental conditions were used for reactions in the presence of antithrombin, except for 100 nM of antithrombin added prior to the addition of the substrate.

[3] = target: T2, wtTH (recombinant wild type thrombin) (Homo sapiens, UniProt P00734); test: Inhibition of recombinant wild type thrombin; details: pH 7.4, 25 °C
T2 construct: the recombinant wild-type thrombin control
Method: as §1

thrombin mutant K236A = target: T3, thrombin mutant K236A (Homo sapiens, UniProt P00734, K611A); test: Inhibition of thrombin mutant K236A; details: pH 7.4, 25 °C
T3 construct: a group of thrombin mutants containing replacement of either Arg or Lys present in exosite 2 to Ala
Method: as §1

thrombin mutant K235A = target: T4, thrombin mutant K235A (Homo sapiens, UniProt P00734, K610A); test: Inhibition of thrombin mutant K235A; details: pH 7.4, 25 °C
T4 construct: a group of thrombin mutants containing replacement of either Arg or Lys present in exosite 2 to Ala
Method: as §1

thrombin mutant R173A = target: T5, thrombin mutant R173A (Homo sapiens, UniProt P00734, R541A); test: Inhibition of thrombin mutant R173A; details: pH 7.4, 25 °C
T5 construct: a group of thrombin mutants containing replacement of either Arg or Lys present in exosite 2 to Ala
Method: as §1

thrombin mutant K169A = target: T6, thrombin mutant K169A (Homo sapiens, UniProt P00734, K537A); test: Inhibition of thrombin mutant K169A; details: pH 7.4, 25 °C
T6 construct: a group of thrombin mutants containing replacement of either Arg or Lys present in exosite 2 to Ala
Method: as §1

thrombin mutant R165A = target: T7, thrombin mutant R165A (Homo sapiens, UniProt P00734, R533A); test: Inhibition of thrombin mutant R165A; details: pH 7.4, 25 °C
T7 construct: a group of thrombin mutants containing replacement of either Arg or Lys present in exosite 2 to Ala
Method: as §1

thrombin mutant R93A = target: T8, thrombin mutant R93A (Homo sapiens, UniProt P00734, R452A); test: Inhibition of thrombin mutant R93A
T8 construct: a group of thrombin mutants containing replacement of either Arg or Lys present in exosite 2 to Ala
Method: as §1

factor Xa [4] = target: T1, factor Xa; test: Antithrombin inactivation of factor Xa in the presence of sulfated coumarin; details: 0 or 220 nM 3g, pH 7.2, 25 °C
Method: The effect of 3g on the reaction of thrombin (or factor Xa) with antithrombin was studied under pseudo-first order conditions such that [AT]0 ≫ [T]0. A fixed concentration of 6 nM plasma α-thrombin in 20 mM Tris-HCl buffer, pH 7.2, containing 100 mM NaCl, 2.5 mM CaCl2 and 0.1% PEG 8000 at 25 °C was incubated for 128 min with final concentrations of 0, 75, 225, or 675 nM of 3g following which a fixed concentration of 100 nM of antithrombin was added and the reaction allowed to proceed. […] The initial rate of hydrolysis of the Spectrozymes were monitored from the linear increase in A405. The fractional residual enzyme activity at each time point was calculated from the slope, i.e., thrombin activity, measured at the start of the experiment and fitted by the standard exponential decay equation 6 to calculate the observed pseudo-first order rate constant, kOBS, at each concentration of 3g. The intrinsic second-order rate constant of antithrombin inhibition of thrombin (kINT) was calculated using equation 7 and plotted against the concentration of thrombin–3g complex, obtained from quadratic equation 8, to derive the kINT of antithrombin inhibition of thrombin–3g complex.

T1 sequence (P00742 235-488 limits assumed): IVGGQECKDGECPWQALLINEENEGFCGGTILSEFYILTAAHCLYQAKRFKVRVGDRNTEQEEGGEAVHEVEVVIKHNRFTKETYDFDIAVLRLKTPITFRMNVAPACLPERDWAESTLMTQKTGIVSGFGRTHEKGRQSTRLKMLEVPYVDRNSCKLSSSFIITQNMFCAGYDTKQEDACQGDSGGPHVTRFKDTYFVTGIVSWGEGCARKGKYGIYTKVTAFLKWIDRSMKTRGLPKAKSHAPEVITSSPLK
T1 sequence (P00742 41-179 limits assumed): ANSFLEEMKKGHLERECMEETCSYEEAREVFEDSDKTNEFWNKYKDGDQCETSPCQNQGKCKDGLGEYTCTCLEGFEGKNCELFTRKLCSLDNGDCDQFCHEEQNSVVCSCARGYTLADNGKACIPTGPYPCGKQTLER

Q: Which results are given for `O=c1oc2cc(OCCCCn3cc(COc4ccc(-c5c(-c6ccccc6)c6cc(Cl)cc(Cl)c6oc5=O)cc4)nn3)ccc2c(-c2ccccc2)c1-c1ccc(OS(=O)(=O)O)cc1` [3g]?
A: selectivity for thrombin in comparison to factor Xa (factor Xa [1]): ~ 800 fold; IC50 (factor Xa [1]; pH 7.4, 37 °C, read-out: IC50 against factor Xa): > 30000 nM; increase of IC50 in comparison to recombinant wild-type thrombin ([2]; mutants K236A, K235A, R173A and K169A): < 1.4 fold; maximal inhibition efficacies ([2]; range over all recombinant thrombins studied): 28 to 64%; HS [3]: 4.0; IC50 [3]: 413 ± 50 nM; ΔY [3]: 39 ± 3%; HS (thrombin mutant K236A): 2.6; IC50 (thrombin mutant K236A): 525 ± 70 nM; ΔY (thrombin mutant K236A): 64 ± 4%; HS (thrombin mutant K235A): 1.9; IC50 (thrombin mutant K235A): 471 ± 80 nM; ΔY (thrombin mutant K235A): 33 ± 3%; HS (thrombin mutant R173A): 2.0; IC50 (thrombin mutant R173A): 522 ± 90 nM; ΔY (thrombin mutant R173A): 36 ± 3%; HS (thrombin mutant K169A): 7.6; IC50 (thrombin mutant K169A): 494 ± 50 nM; ΔY (thrombin mutant K169A): 38 ± 3%; HS (thrombin mutant R165A): 4.2; IC50 (thrombin mutant R165A): 301 ± 20 nM; ΔY (thrombin mutant R165A): 28 ± 2%; increase of inhibition potency in comparison to recombinant wild-type thrombin (thrombin mutant R93A; R93A mutant): 2.3 fold; HS (thrombin mutant R93A; R93A, pH 7.4, 25 °C): 1.3; IC50 (thrombin mutant R93A; R93A, pH 7.4, 25 °C): 154 ± 20 nM; ΔY (thrombin mutant R93A; R93A, pH 7.4, 25 °C): 51 ± 2%; change in the second-order rate constant of antithrombin inhibition of factor Xa (factor Xa [4]): did not induce any change
